Data taken from patent publication US7129218B2, “Use of rhamnolipids in wound healing, treatment and prevention of gum disease and periodontal regeneration” (Paradigm Biomedical, Inc., priority 1999, dated 2006).

Key:
[1] = test system: incision wounds; experiment: Tensile strength of incision wounds (rats); assay type: in vivo, Sprague-Dawley rats; conditions: 0.1% BAC-3; 21 days after wounding; p<0.05 by ANOVA; FIG. 3
Description: The wounding of animals was performed according to the Protocol for Animal Use and Care at the University of California-Davis (hereafter UC-Davis). The entire animal protocol required 70 Sprague-Dawley rats: 30 rats for incision wounds and 40 rats for burn wounds. Among them 36 rats were burned over 7% of their skin and 4 rats were burned over 15% of their skin. Incision wounds of whole skin and burn wounds were treated topically with 2 test doses of the pharmaceutical preparation of di-rhamnolipid BAC-3. Each dose contained a). 1%, and 0.1% of active di-rhamnolipid (BAC-3) in eucerin (eucerin=71.5 g Vaselinum album (Producer: D.E.A. Hamburg); 23.8 g Lanolinum (Producer I.O.I. Hamburg); 4.7 g Cholesterin (Producer: Solvay, Wiena, Austria); Water Number: 320); or b). 1%; 0.1% active rhamnolipid (BAC-3) with antiseptic (chlorhexidine hydrochloride-PLIVA-Zagreb). Eucerin with BAC-3 was administrated twice daily during healing. The same experiment had one control group without the treatment, and one control group which was treated with ointment+1% chlorhexidine hydrochloride. […]
Tensile Strength Determination. […] The tensile strength of healthy skin was measured in killed animals from each group.
Effect of BAC-3 on Tensile Strength of Incision Wounds (FIG. 3) with and without chlorhexidine hydrochloride. The tensile strength of incision wounds was measured 21 days after wounding. […]

[2] = test system: neonatal human fibroblast cells; experiment: Caspase detection in neonatal human fibroblast cells in FM, fluorescence spectroscopy; assay type: cell-based; conditions: fibroblasts in FM
Description: The procedure for caspase detection in neonatal human fibroblast cells in fibroblast growth medium FM* treated with BAC-3 using fluorescence spectroscopy.
Note: CaspaTag Fluorescein Caspase Activity Kit (Intergen Company) was used to detect active caspase enzymes with fluorescent spectroscopy. All solutions, except cell medium and PBS, were included with the kit.
12 vials of neonatal human fibroblasts, NHF97-001 passage #3 (prepared as described in section 2.1.a), were retrieved from a liquid N2 chamber. Closed vials were quickly defrosted in a small amount of 37° C., 75% ethanol. […]
Di-rhamnolipid BAC-3 was weighed on the precision balance (Mettler AC100) and dissolved in FM medium to make an aqueous 1 mg/ml di-rhamnolipid BAC-3 stock solution. […] The remaining 9 plates were used as controls: 3 plates for positive apoptosis control (apoptosis induction by UVB+antibody), 3 plates for BAC-3 untreated control and 3 plates for fluorescence control (FAM-VAD-FMK unlabelled cells). […]
On day 6, treatment with BAC-3 was completed and cells were trypsinized and collected into 50 ml centrifuge tubes. Cells were counted using a hemacytometer and a trypan blue exclusion test and densities were adjusted to 1.0×10^6 cells per ml of FM medium. […]

CCCCCCCC(CC(=O)O)OC(=O)CC(CCCCCCC)OC1OC(C)C(O)C(O)C1OC1OC(C)C(O)C(O)C1O [BAC-3, (α-L-rhamnopyranosyl-(1,2)-α-L-rhamnopyranosyl)-3-hyroxydecanoyl-3-hydroxydecanoic acid]
tensile strength of incision wounds vs corresponding vehicle [1]: significantly lower
optimal concentration for inducing apoptosis (caspase activity peak) ([2]; 6 days, tested 100, 50, 10 and 1 μg/ml): 50 µg/mL
mechanism of cell death at higher concentrations ([2]; higher concentrations of BAC-3 (detergent effect)): cell necrosis
